# Reference: ChEMBL document CHEMBL4418481, “Chemical agents for the prevention of inhibition or tumor metastasis” (2013)
# Calls of active or inactive are those of the source. The calls are words filed in the database; no cut-off is given here.
# Tested on: MDA-MB-231
# Test: Growth inhibition of human MDA-MB-231 cells incubated for 24 hrs by MTT assay
# Assay type: functional
# Conditions: not given
row,Compound,GI50
1,O=C(O)C[C@@H]1OCC=C2CN3CC[C@]45C6=CC(=O)C(=O)C([N+](=O)[O-])=C6N[C@H]4[C@H]1[C@H]2C[C@H]35,inactive

# Same assay, conditions: MDA-MB-231, 24 h
row,GI50,Compound
1,190 µM,O=C1NC(=S)S/C1=C/c1cc([N+](=O)[O-])ccc1Sc1ccc(C(F)(F)F)cn1

# Biological target: Protein S100-A4 (Homo sapiens, UniProt P26447)
# Sequence (P26447 whole entry, the tested form may be a part): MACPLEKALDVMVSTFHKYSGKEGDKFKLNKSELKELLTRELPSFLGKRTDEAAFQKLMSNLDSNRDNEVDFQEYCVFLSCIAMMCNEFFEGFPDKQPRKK
# Test: Binding affinity to S100A4 (unknown origin) assessed as inhibition of S100A4/myosin-2A interaction using fluorescein-tagged myosin-2A peptide (1908 to 1923 residues) by fluorescence polarization assay
# Conditions: not given
row,Compound,EC50
1,CCSC1=CC(=O)c2ccccc2C1=O,22 µM
2,CC1=C(SCc2ccccc2)C(=O)c2ccccc2C1=O,95 µM
3,CCSC1=C(C)C(=O)c2ccccc2C1=O,51 µM
4,CCCCSC1=CC(=O)c2ccccc2C1=O,40 µM
5,O=C1C(=C2C=Nc3ccccc32)Nc2ccc(Br)cc21,31 µM
6,O=C1C(NCCCN2CCCCC2)=CC(=O)c2ncccc21,85 µM
7,CSC1=C(C)C(=O)c2ccccc2C1=O,64 µM
8,NC1=CC(=O)c2ncccc2C1=O,34 µM
9,"O=C1C(=O)c2ccccc2-c2ccccc21 [9,10-PHENANTHRENEQUINONE]",3.8 µM
10,O=C1C(=O)c2cccc([N+](=O)[O-])c2-c2c1cccc2[N+](=O)[O-],16 µM
11,CC(=O)N(C1=C(Cl)C(=O)c2ccccc2C1=O)c1ccc(F)cc1,96 µM
12,O=C1C(=C(Br)Br)c2ccccc2-c2ccccc21,35 µM
13,O=C1c2ccccc2C(=O)C(Cl)C1Cl (centres undefined),27 µM
14,CCCCN(CCCC)CCCNC1=CC(=O)c2ncccc2C1=O,70 µM
15,O=C1C(=O)c2cc([N+](=O)[O-])ccc2-c2ccc([N+](=O)[O-])cc21,18 µM
16,CC(=O)NC1=C(Sc2ccc(Cl)cc2)C(=O)c2ccccc2C1=O,94 µM
17,Nc1c2c(=O)[nH]c(=O)c2c(N)c2c(=O)c3ccccc3c(=O)c12,36 µM
18,O=C(O)CCSC1=CC(=O)c2ccccc2C1=O,21 µM
19,O=C1NC(=S)S/C1=C/c1cc([N+](=O)[O-])ccc1Sc1ccc(C(F)(F)F)cn1,46 µM
20,O=C1CC(Cl)C(=O)c2ccccc21 (centres undefined),67.5 µM
21,O=C1C=C(NCCc2cc(Br)c(O)c(Br)c2)C(=O)c2ncccc21,92 µM
22,CSC1=CC(=O)c2ccccc2C1=O,92.5 µM
23,CC1=C(SCC(=O)O)C(=O)c2ccccc2C1=O,39 µM
24,CC1=C(SCCO)C(=O)c2ccccc2C1=O,62 µM
25,Cc1ccc(C(=O)OC2=CC(=O)c3ccccc3C2=O)cc1,64 µM
26,O=C1C(NCCF)=C(Cl)C(=O)c2ncccc21,28.7 µM

# The next lines start with the values.
row,EC50,Compound
1,14 µM,O=C1C(Cl)=C(Cl)C(=O)c2ncccc21
2,0.5 to 2 µM,O=C1C(=O)c2cc([N+](=O)[O-])ccc2-c2ccccc21
3,16 µM,O=C1C=C(SCCO)C(=O)c2ccccc21
4,2.5 to 4.8 µM,O=C1c2ccccc2-c2ccccc2C1(Cl)Cl
5,9 µM,CC(=O)NC1=C(Cl)C(=O)c2ncccc2C1=O
6,8.3 µM,O=C1C(=O)c2cc(Br)cc([N+](=O)[O-])c2-c2ccc(Br)cc21
7,2.2 µM,CC(=O)c1ccc2c(c1)-c1ccccc1C(=O)C2=O
8,8.6 µM,Cc1ccc2c(n1)C(=O)C=CC2=O
9,19 µM,O=C1C(=O)c2cc(Br)ccc2-c2ccc(Br)cc21
10,13.5 µM,NC1=C(Cl)C(=O)c2ncccc2C1=O
11,8.4 µM,Cc1ccc(S(=O)(=O)N/N=C2\C(=O)c3ccccc3-c3ccccc32)cc1
12,1.6 µM,Nc1ccc2c(c1)C(=O)C(=O)c1ccccc1-2
13,16 µM,O=C1C=CC(=O)c2ncccc21
14,12 µM,COC1=C(N)C(=O)c2ncccc2C1=O
15,16 µM,NC1=C(Br)C(=O)c2ncccc2C1=O
16,2.2 µM,O=C1C2=C(SCCS2)C(=O)c2ccccc21
17,8.1 to 8.7 µM,O=C1C(=O)c2cc(Cl)ccc2-c2ccc(Cl)cc21
18,18 µM,CC(=O)NC1=CC(=O)c2cccnc2C1=O
19,1.8 µM,O=C1C(=O)c2cc(Cl)ccc2-c2ccccc21
20,2.5 µM,O=C1C(=O)c2cccc([N+](=O)[O-])c2-c2ccccc21

# Tested on: MDA-MB-231
# Test: Induction of cell death in human MDA-MB-231 cells at 50 uM incubated for 24 hrs by MTT assay relative to untreated control
# Assay type: functional
# Conditions: not given
row,Compound,Activity
1,Cc1oc(-c2ccc(Cl)cc2)cc1C(=O)/C(C#N)=C/c1ccccc1,100%
